In the Kinase Knowledgebase extract (Sharma et al. 2016):

Biological target: PIK3CG (human) (UniProt P48736)
Experiment: Assessment of PIK3CG Kinase Activity

Chain of PIK3CG (human) (P48736 whole entry, looked up): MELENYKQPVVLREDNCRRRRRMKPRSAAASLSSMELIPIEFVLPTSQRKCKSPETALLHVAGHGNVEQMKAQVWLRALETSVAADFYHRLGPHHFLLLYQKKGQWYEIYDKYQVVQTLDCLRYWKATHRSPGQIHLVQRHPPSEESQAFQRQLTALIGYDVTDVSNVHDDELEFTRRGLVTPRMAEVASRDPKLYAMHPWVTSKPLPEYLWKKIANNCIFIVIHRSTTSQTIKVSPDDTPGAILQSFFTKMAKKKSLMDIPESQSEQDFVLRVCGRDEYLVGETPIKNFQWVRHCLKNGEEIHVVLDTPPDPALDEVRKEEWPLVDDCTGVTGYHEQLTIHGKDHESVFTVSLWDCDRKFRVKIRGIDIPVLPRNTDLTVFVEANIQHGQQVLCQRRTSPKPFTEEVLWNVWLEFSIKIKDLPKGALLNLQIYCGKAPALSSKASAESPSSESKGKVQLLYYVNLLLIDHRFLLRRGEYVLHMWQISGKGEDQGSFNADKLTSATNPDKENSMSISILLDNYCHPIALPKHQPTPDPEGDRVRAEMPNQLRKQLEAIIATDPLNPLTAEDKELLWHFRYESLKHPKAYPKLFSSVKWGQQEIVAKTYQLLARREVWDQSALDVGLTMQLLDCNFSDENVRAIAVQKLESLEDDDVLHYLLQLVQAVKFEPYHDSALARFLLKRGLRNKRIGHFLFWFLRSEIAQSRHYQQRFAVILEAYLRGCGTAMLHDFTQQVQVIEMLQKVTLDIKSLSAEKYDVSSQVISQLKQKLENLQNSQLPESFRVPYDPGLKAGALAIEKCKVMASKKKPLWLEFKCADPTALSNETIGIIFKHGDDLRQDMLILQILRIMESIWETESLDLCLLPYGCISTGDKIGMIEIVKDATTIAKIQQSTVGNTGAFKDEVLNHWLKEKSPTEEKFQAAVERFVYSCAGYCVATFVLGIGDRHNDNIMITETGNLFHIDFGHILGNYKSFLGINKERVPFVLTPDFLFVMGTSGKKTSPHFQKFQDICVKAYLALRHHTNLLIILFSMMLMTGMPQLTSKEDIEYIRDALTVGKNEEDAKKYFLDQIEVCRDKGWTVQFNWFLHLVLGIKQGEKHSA

| SMILES | IC50 [nM] |
| --- | --- |
| CC(=O)Nc1nc2c(s1)-c1nc(-c3cc(C#CCNS(=O)(=O)C4CC4)ccc3Cl)ncc1CC2 | < 600 |
| CC(=O)Nc1nc2c(s1)-c1nc(-c3cc(C#CCN(C)S(=O)(=O)C(C)C)ccc3Cl)ncc1CC2 | < 600 |
| CC(=O)Nc1nc2c(s1)-c1nc(-c3cc(C#CCN(C)S(=O)(=O)N4CCCC4)ccc3Cl)ncc1CC2 | < 600 |
| CC(=O)Nc1nc2c(s1)-c1nc(-c3cc(C#CCCCN4CCOCC4)ccc3Cl)ncc1CC2 | < 600 |
| CC(=O)Nc1nc2c(s1)-c1nc(-c3cc(Cl)cc(C#CCN(C)S(C)(=O)=O)c3)ncc1CC2 | < 600 |
| CC(=O)Nc1nc2c(s1)-c1nc(-c3cc(C#CCCN4CCC(N(C)C)CC4)ccc3Cl)ncc1CC2 | < 600 |
| CC(=O)Nc1nc2c(s1)-c1nc(-c3cc(C#CCNC(=O)CC(C)C)ccc3Cl)ncc1CC2 | < 600 |
| CC(=O)Nc1nc2c(s1)-c1nc(-c3cc(C#CCNC(=O)CC(C)(C)C)ccc3Cl)ncc1CC2 | < 600 |
| CNC(=O)Nc1nc2c(s1)-c1nc(-c3cc(C#CC4(OC)CCN(C)CC4)ccc3Cl)ncc1CC2 | < 600 |
| CC(=O)Nc1nc2c(s1)-c1nc(-c3cc(C#CC4(NC(C)=O)CCCCC4)ccc3Cl)ncc1CC2 | < 600 |
| C=CC#Cc1ccc(Cl)c(-c2ncc3c(n2)-c2sc(NC(C)=O)nc2CC3)c1 | < 600 |
| CC(=O)Nc1nc2c(s1)-c1nc(-c3cc(C#CCCN(C)C(C)C)ccc3Cl)ncc1CC2 | < 600 |
| CC(=O)Nc1nc2c(s1)-c1nc(-c3cc(C#CCNC(=O)CC4CCN(C)CC4)ccc3Cl)ncc1CC2 | < 600 |
| CC(=O)Nc1nc2c(s1)-c1nc(-c3cc(C#CC4CCN(S(=O)(=O)N(C)C)CC4)ccc3Cl)ncc1CC2 | < 600 |
| CC(=O)Nc1nc2c(s1)-c1nc(-c3cc(C#CCNS(=O)(=O)C(F)(F)F)ccc3Cl)ncc1CC2 | < 600 |
| CC(=O)Nc1nc2c(s1)-c1nc(-c3cc(C#CCCN4CCOCC4)ccc3Cl)ncc1CC2 | < 600 |
| CC(=O)Nc1nc2c(s1)-c1nc(-c3cccc(C#CCNS(=O)(=O)N(C)C)c3)ncc1CC2 | < 600 |
| CC(=O)Nc1nc2c(s1)-c1nc(-c3cc(C#CC4(O)CCN(C5CCCC5)CC4)ccc3F)ncc1CC2 | < 600 |
| CC(=O)Nc1nc2c(s1)-c1nc(-c3cc(C#CCO[C@@H]4CN5CCC4CC5)ccc3Cl)ncc1CC2 | < 600 |

| SMILES | IC50 [nM] |
| --- | --- |
| CC(=O)Nc1nc2c(s1)-c1nc(-c3cc(C#CCNC(=O)NC(C)C)ccc3Cl)ncc1CC2 | < 600 |
| CC(=O)Nc1nc2c(s1)-c1nc(-c3cccc(C#CC4CCN(C(C)C)CC4)c3)ncc1CC2 | < 600 |
| CNCC#Cc1ccc(Cl)c(-c2ncc3c(n2)-c2sc(NC(C)=O)nc2CC3)c1 | < 600 |
| CC(=O)Nc1nc2c(s1)-c1nc(-c3cc(C#CCNS(=O)(=O)c4ccoc4)ccc3Cl)ncc1CC2 | < 600 |
| CC(=O)Nc1nc2c(s1)-c1nc(-c3cc(C#CC(C)(C)N)ccc3Cl)ncc1CC2 | < 600 |
| CCC(N)(C#Cc1ccc(Cl)c(-c2ncc3c(n2)-c2sc(NC(C)=O)nc2CC3)c1)CC | < 600 |
| CC(=O)Nc1nc2c(s1)-c1nc(-c3cc(C#CC4CCN(C(=O)CC5CCCC5)CC4)ccc3Cl)ncc1CC2 | < 600 |
| CC(=O)Nc1nc2c(s1)-c1nc(-c3cc(C#CC4CCN(C(=O)N5CCOCC5)CC4)ccc3Cl)ncc1CC2 | < 600 |
| CC(=O)Nc1nc2c(s1)-c1nc(-c3cc(C#CCNC(=O)N(C)C)ccc3Cl)ncc1CC2 | < 600 |
| CC(=O)Nc1nc2c(s1)-c1nc(-c3cc(C#CCCCNC4CCN(C)CC4)ccc3Cl)ncc1CC2 | < 600 |
| CC(=O)Nc1nc2c(s1)-c1nc(-c3cc(C#CC4CCN(CC5CCCC5)CC4)ccc3Cl)ncc1CC2 | < 600 |
| CNC1(C#Cc2ccc(Cl)c(-c3ncc4c(n3)-c3sc(NC(C)=O)nc3CC4)c2)CCCCC1 | < 600 |
| CC(=O)Nc1nc2c(s1)-c1nc(-c3cc(C#CC4CCN(C(=O)NC(C)C)CC4)ccc3Cl)ncc1CC2 | < 600 |
| CC(=O)Nc1nc2c(s1)-c1nc(-c3cccc(C#CC4CCN(CC5CCCC5)CC4)c3)ncc1CC2 | < 600 |
| COC1(C#Cc2ccc(F)c(-c3ncc4c(n3)-c3sc(NC(C)=O)nc3CC4)c2)CCN(C)CC1 | < 600 |
| COC1(C#Cc2ccc(F)c(-c3ncc4c(n3)-c3sc(NC(C)=O)nc3CC4)c2)CCCCC1 | < 600 |
| CCNC1(C#Cc2ccc(Cl)c(-c3ncc4c(n3)-c3sc(NC(C)=O)nc3CC4)c2)CCCCC1 | < 600 |
| CC(=O)Nc1nc2c(s1)-c1nc(-c3cc(C#CC4CCN(C(C)C)CC4)ccc3Cl)ncc1CC2 | < 600 |

Other lines, results leading:

| IC50 [nM] | SMILES |
| --- | --- |
| < 600 | COCC#Cc1ccc(Cl)c(-c2ncc3c(n2)-c2sc(NC(C)=O)nc2CC3)c1 |
| < 600 | CC(=O)Nc1nc2c(s1)-c1nc(-c3cc(C#CC4(O)CCN(C(C)C)CC4)ccc3F)ncc1CC2 |
| < 600 | CC(=O)Nc1nc2c(s1)-c1nc(-c3cc(C#CCNC(=O)NC(C)(C)C)ccc3Cl)ncc1CC2 |
| < 600 | CC(=O)Nc1nc2c(s1)-c1nc(-c3cc(C#CCNCC4CC4)ccc3Cl)ncc1CC2 |
| < 600 | CC(=O)Nc1nc2c(s1)-c1nc(-c3cc(Cl)cc(C#CCNC(=O)CC(C)(C)C)c3)ncc1CC2 |
| < 600 | CC(=O)Nc1nc2c(s1)-c1nc(-c3cc(C#CCNC(=O)CN(C)C)ccc3Cl)ncc1CC2 |
| < 600 | CC(=O)Nc1nc2c(s1)-c1nc(-c3cc(C#CCCN4CCN(C)CC4)ccc3Cl)ncc1CC2 |
| < 600 | CC(=O)Nc1nc2c(s1)-c1nc(-c3cc(C#CC4CCNCC4)ccc3Cl)ncc1CC2 |
| < 600 | CC(=O)Nc1nc2c(s1)-c1nc(-c3cc(C#CC4CCN(C(=O)CC(C)C)CC4)ccc3Cl)ncc1CC2 |
| < 600 | CC(=O)Nc1nc2c(s1)-c1nc(-c3cc(C#CC4CCN(C(=O)N5CCCC5)CC4)ccc3Cl)ncc1CC2 |
| < 600 | CC(=O)Nc1nc2c(s1)-c1nc(-c3cc(C#CCCCN4CCN(C)CC4)ccc3Cl)ncc1CC2 |
| < 600 | CC(=O)Nc1nc2c(s1)-c1nc(-c3cc(C#CCOC4CCN(C(C)=O)CC4)ccc3Cl)ncc1CC2 |
| < 600 | CC(=O)Nc1nc2c(s1)-c1nc(-c3cc(C#CC4(O)CCN(C)CC4)ccc3Cl)ncc1CC2 |
| < 600 | CC(=O)Nc1nc2c(s1)-c1nc(-c3cc(C#CC4CCN(C(=O)C5CCCC5)CC4)ccc3Cl)ncc1CC2 |
| < 600 | CC(=O)Nc1nc2c(s1)-c1nc(-c3cccc(C#CCNC(=O)C4CCCC4)c3)ncc1CC2 |
| < 600 | CC(=O)Nc1nc2c(s1)-c1nc(-c3cc(C#CC4CCN(C(=O)NC5CCCC5)CC4)ccc3Cl)ncc1CC2 |
| < 600 | CC(=O)Nc1nc2c(s1)-c1nc(-c3cc(C#CCCCNCC(C)C)ccc3Cl)ncc1CC2 |
| < 600 | CCN(C)S(=O)(=O)NCC#Cc1ccc(Cl)c(-c2ncc3c(n2)-c2sc(NC(C)=O)nc2CC3)c1 |
| < 600 | CC(=O)Nc1nc2c(s1)-c1nc(-c3cc(C#CCNC(=O)N4CCCC4)ccc3Cl)ncc1CC2 |
| < 600 | CCNC(=O)NCC#Cc1ccc(Cl)c(-c2ncc3c(n2)-c2sc(NC(C)=O)nc2CC3)c1 |
| < 600 | CC(=O)Nc1nc2c(s1)-c1nc(-c3cc(C#CCNS(=O)(=O)c4ccccc4)ccc3Cl)ncc1CC2 |
| < 600 | CC(=O)Nc1nc2c(s1)-c1nc(-c3cccc(C#CC4CCN(C5CCCC5)CC4)c3)ncc1CC2 |
| < 600 | COC1(C#Cc2ccc(Cl)c(-c3ncc4c(n3)-c3sc(NC(C)=O)nc3CC4)c2)CCN(C)CC1 |
| < 600 | CC(=O)Nc1nc2c(s1)-c1nc(-c3cc(Cl)cc(C#CC4(N)CCCCC4)c3)ncc1CC2 |

| IC50 [nM] | SMILES |
| --- | --- |
| < 600 | CC(=O)Nc1nc2c(s1)-c1nc(-c3cc(C#CCN4CCN(C5CCCC5)CC4)ccc3Cl)ncc1CC2 |
| < 600 | CC(=O)Nc1nc2c(s1)-c1nc(-c3cc(C#CCN(C)S(=O)(=O)CC(F)(F)F)ccc3Cl)ncc1CC2 |
| < 600 | CC(=O)Nc1nc2c(s1)-c1nc(-c3cc(C#CC4CCN(C5CCCC5)CC4)ccc3Cl)ncc1CC2 |
| < 600 | CC(=O)Nc1nc2c(s1)-c1nc(-c3cc(C#CCN4CCN(C)CC4)ccc3Cl)ncc1CC2 |
| < 600 | CC(=O)Nc1nc2c(s1)-c1nc(-c3cc(C#CCNCC4CCCC4)ccc3Cl)ncc1CC2 |
| < 600 | CNC(=O)Nc1nc2c(s1)-c1nc(-c3cc(C#CC4(O)CCN(C5CCCC5)CC4)ccc3Cl)ncc1CC2 |
| < 600 | CC(=O)Nc1nc2c(s1)-c1nc(-c3cc(C#CCN(C)C(=O)C4CCCC4)ccc3Cl)ncc1CC2 |
| < 600 | CC(=O)Nc1nc2c(s1)-c1nc(-c3cc(C#CC4(N)CCCCC4)ccc3Cl)ncc1CC2 |
| < 600 | CC(=O)Nc1nc2c(s1)-c1nc(-c3cc(C#C[C@H]4CCCN4)ccc3Cl)ncc1CC2 |
| < 600 | CC(=O)Nc1nc2c(s1)-c1nc(-c3cccc(C#CC4(O)CCN(C5CCCC5)CC4)c3)ncc1CC2 |
| < 600 | CC(=O)Nc1nc2c(s1)-c1nc(-c3cc(C#CCNCC(C)C)ccc3Cl)ncc1CC2 |
| < 600 | CC(=O)Nc1nc2c(s1)-c1nc(-c3cc(C#CC4CCN(C(=O)NCC5CCCCC5)CC4)ccc3Cl)ncc1CC2 |
| < 600 | CC(=O)Nc1nc2c(s1)-c1nc(-c3cc(C#CCCNC(C)C)ccc3Cl)ncc1CC2 |
| < 600 | CC(=O)Nc1nc2c(s1)-c1nc(-c3cc(Cl)cc(C#CCNS(C)(=O)=O)c3)ncc1CC2 |
| < 600 | CC(=O)Nc1nc2c(s1)-c1nc(-c3cccc(C#CC4(O)CCN(C)CC4)c3)ncc1CC2 |
| < 600 | CC(=O)Nc1nc2c(s1)-c1nc(-c3cc(C#CCCN4CCCC4)ccc3Cl)ncc1CC2 |
| < 600 | CNC(=O)N(C)CCC#Cc1ccc(Cl)c(-c2ncc3c(n2)-c2sc(NC(C)=O)nc2CC3)c1 |
| < 600 | CC(=O)Nc1nc2c(s1)-c1nc(-c3cc(C#CCN)ccc3Cl)ncc1CC2 |
| < 600 | CC(=O)Nc1nc2c(s1)-c1nc(-c3cc(C#CCNC(C)C)ccc3Cl)ncc1CC2 |
| < 600 | CC(=O)Nc1nc2c(s1)-c1nc(-c3cc(C#Cc4ccccn4)ccc3Cl)ncc1CC2 |
| < 600 | CC(=O)Nc1nc2c(s1)-c1nc(-c3cc(C#CCN(C)S(=O)(=O)C4CC4)ccc3Cl)ncc1CC2 |
| < 600 | COC1(C#Cc2ccc(Cl)c(-c3ncc4c(n3)-c3sc(NC(C)=O)nc3CC4)c2)CCN(C2CCCC2)CC1 |
| < 600 | CC(=O)Nc1nc2c(s1)-c1nc(-c3cc(C#CCN4CCN(C(C)=O)CC4)ccc3Cl)ncc1CC2 |
| < 600 | CC(=O)Nc1nc2c(s1)-c1nc(-c3cccc(C#CCN(C)C)c3)ncc1CC2 |
